In ChEMBL document CHEMBL5647690, “Inhibition of demethylases by GSK-J1/J4” (Nature, 2014):

Legend:
[1] = target: Lysine-specific demethylase 5A (Homo sapiens, UniProt P29375); assay: Inhibition of KDM5A (1 to 1090 residues)(unknown origin) by Alphalisa assay
Macrophage = assay: Antiinflammatory activity against human primary macrophages assessed as inhibition of LPS-activated TNF-alpha production incubated for 6 hrs by ELISA; assay type: functional, cell-based
[2] = target: T1, Lysine-specific demethylase 4C (Homo sapiens, UniProt Q9H3R0); assay: Inhibition of epitope-tagged full length KDM4C (unknown origin) transfected in human U2OS cells using H3K9me3 peptide as substrate; assay type: cell-based
T1 sequence (Q9H3R0 whole entry): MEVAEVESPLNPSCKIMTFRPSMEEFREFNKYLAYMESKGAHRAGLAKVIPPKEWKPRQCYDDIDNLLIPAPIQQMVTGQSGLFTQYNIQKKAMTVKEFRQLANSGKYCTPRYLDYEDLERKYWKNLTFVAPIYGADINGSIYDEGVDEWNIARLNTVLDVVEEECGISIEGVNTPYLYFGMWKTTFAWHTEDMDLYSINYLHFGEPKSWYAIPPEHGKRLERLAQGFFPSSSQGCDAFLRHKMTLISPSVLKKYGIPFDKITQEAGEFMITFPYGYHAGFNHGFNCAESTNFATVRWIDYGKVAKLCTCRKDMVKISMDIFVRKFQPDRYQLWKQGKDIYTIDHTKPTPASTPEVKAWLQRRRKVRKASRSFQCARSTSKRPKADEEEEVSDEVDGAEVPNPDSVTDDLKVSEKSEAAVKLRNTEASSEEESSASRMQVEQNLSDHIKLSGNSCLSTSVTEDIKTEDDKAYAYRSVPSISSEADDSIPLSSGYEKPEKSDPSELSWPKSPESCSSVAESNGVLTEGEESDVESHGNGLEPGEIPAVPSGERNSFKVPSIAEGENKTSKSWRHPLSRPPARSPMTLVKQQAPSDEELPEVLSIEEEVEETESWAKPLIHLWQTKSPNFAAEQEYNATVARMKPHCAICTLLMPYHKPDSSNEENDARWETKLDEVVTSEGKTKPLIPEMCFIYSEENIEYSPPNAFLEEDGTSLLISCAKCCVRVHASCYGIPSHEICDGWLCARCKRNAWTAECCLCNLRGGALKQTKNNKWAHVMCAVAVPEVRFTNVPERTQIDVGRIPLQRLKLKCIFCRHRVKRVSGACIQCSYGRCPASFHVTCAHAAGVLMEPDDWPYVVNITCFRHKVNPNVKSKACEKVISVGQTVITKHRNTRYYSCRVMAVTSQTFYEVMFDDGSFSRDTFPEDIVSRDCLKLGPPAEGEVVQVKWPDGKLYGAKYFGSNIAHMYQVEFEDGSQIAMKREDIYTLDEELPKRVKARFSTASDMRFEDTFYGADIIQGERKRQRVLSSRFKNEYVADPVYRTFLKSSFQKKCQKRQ

[3] = target: T2, Lysine-specific demethylase 3A (Homo sapiens, UniProt Q9Y4C1); assay: Inhibition of KDM3A (2 to 1322 residues)(unknown origin) by Alphalisa assay
T2 sequence (Q9Y4C1 whole entry): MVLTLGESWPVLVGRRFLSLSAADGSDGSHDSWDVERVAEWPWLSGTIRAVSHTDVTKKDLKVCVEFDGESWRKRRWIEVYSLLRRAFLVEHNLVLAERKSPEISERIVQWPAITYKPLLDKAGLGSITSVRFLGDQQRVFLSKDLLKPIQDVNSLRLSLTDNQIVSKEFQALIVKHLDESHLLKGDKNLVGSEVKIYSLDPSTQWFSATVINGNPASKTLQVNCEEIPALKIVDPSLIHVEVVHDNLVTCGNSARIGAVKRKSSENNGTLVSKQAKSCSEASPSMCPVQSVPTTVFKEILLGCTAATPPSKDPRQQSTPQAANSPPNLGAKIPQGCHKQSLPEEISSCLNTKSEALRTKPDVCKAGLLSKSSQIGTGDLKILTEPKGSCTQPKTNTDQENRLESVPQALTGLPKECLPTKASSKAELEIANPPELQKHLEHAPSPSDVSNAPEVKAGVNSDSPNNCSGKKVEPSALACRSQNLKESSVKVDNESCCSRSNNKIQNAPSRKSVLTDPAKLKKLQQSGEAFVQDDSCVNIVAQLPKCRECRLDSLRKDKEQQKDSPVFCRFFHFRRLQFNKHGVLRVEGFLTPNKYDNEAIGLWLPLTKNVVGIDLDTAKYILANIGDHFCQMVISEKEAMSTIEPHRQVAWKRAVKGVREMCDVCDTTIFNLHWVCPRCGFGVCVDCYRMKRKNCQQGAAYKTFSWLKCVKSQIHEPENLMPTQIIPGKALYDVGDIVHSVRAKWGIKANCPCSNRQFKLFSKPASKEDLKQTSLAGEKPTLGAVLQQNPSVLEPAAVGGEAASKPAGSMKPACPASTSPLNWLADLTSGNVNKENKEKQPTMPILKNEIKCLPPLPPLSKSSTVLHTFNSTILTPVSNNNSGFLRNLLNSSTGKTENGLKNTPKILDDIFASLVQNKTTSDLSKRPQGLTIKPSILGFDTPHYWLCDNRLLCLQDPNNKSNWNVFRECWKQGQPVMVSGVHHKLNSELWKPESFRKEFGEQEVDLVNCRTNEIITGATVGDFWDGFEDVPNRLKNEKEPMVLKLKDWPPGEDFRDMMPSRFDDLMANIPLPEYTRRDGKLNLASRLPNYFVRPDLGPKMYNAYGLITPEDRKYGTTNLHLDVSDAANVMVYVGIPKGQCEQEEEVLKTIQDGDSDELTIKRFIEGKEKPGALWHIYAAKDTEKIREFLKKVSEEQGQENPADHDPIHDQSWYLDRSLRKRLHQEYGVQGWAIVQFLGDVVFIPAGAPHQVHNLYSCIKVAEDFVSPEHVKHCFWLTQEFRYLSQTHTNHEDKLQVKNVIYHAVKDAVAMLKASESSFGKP

Sequence of Lysine-specific demethylase 5A (P29375 whole entry, the tested form may be a part): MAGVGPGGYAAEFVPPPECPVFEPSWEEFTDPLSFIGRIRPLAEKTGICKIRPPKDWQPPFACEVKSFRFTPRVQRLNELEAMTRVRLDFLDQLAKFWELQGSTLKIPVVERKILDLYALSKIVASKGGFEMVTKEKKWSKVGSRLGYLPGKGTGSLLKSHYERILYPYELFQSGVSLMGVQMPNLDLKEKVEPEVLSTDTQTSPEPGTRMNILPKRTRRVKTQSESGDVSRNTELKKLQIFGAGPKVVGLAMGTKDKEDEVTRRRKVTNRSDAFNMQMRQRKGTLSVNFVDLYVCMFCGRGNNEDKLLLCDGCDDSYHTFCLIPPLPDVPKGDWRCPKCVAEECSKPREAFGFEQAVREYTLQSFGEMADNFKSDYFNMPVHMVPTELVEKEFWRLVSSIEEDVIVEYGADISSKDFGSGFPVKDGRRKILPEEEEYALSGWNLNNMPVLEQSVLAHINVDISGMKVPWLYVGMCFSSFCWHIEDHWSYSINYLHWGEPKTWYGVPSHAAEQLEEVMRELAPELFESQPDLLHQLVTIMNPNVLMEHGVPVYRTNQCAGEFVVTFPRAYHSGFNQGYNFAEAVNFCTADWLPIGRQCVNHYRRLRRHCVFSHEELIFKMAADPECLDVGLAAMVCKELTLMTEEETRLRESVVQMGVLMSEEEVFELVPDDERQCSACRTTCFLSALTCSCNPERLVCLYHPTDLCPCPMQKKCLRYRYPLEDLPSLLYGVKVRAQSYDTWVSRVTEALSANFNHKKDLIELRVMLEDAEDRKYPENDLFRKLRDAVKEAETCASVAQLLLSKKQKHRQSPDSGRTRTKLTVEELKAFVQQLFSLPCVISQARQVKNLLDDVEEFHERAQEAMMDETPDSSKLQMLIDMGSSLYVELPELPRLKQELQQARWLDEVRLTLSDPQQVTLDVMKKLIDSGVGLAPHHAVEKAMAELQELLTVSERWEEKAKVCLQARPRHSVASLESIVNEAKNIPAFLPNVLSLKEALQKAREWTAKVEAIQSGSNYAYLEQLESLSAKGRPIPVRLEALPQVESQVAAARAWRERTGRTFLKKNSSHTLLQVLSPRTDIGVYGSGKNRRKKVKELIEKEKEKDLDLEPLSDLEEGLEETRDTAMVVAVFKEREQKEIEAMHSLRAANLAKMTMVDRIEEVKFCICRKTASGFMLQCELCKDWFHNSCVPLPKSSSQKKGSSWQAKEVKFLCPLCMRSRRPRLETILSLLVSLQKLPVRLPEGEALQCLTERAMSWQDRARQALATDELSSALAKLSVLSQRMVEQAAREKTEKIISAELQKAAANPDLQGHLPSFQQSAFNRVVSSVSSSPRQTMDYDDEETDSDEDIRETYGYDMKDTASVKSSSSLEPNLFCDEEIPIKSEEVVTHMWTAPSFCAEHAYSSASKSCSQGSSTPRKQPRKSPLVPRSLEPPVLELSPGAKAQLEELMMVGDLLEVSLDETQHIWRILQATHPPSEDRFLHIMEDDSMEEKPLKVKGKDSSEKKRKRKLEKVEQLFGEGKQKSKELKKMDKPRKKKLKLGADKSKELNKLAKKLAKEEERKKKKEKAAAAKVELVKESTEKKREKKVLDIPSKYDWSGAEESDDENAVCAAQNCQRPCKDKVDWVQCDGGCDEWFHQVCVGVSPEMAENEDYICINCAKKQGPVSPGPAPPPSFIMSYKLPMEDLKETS

IC50 [1] | IC50 (Macrophage) | IC50 [2] | IC50 [3] | Structure (SMILES)
6.8 µM |  |  |  | O=C(O)CCNc1cc(N2CCc3ccccc3CC2)nc(-c2ccccn2)n1
 | 9 µM | 7.3 µM | 8.5 µM | CCOC(=O)CCNc1cc(N2CCc3ccccc3CC2)nc(-c2ccccn2)n1
